Holding throughout (assay type): cell-based
Assay [1] concerns EBC-1 lung cancer cells. Nature of the assay: CellTiter-Glo proliferation assay, EBC1. How it is done: (§1) OCUM-1: Stomach/gastric cancer—JCRB No. JCRB0192 cultured in DMEM+0.5 mM sodium pyruvate+10% FBS EBC-1: Lung cancer—JCRB No. JCRB0820 cultured in DMEM+10% FBS SKCO-1: Colon cancer—ATCC No. HTB-39 cultured in Eagle's Minimum Essential Medium+10% FBS The Her2 antibody drug conjugates were tested against nine endogenous cancer cell lines. NCI-N87: Stomach/gastric cancer—ATCC No. CRL-5822 cultured in RPMI-1640+10% FBS The PCAD antibody drug conjugates were tested against nine endogenous cancer cell lines. BICR-22: Tongue cancer—ECACC No. 04072106 cultured in DMEM+2 mM Glutamine+2% FBS+0.4 micrograms/ml Hydrocortisone
(§2) The ability of the antibody drug conjugates to inhibit cell proliferation and survival was assessed using the Promega CellTiter-Glo® proliferation assay.
(§3) Cell lines were cultured in media that is optimal for their growth at 5% CO2, 37° C. in a tissue culture incubator. […] On the day of seeding, cell viability and cell density were determined using a cell counter (Vi-Cell XR Cell Viability Analyzer, Beckman Coulter). […] Plates were incubated at 5% CO2, 37° C. for 5 days in a tissue culture incubator, after which cell viability was assessed through the addition of 25 μL of CellTiter Glo® (Promega, cat #G7573), a reagent which lyses cells and measures total adenosine triphosphate (ATP) content. […]
In general terms: In ATP-based viability assays light output follows the ATP content of the culture.

The subject of assay [2] is OCUM-1 stomach/gastric cancer cells. Nature of the assay: CellTiter-Glo proliferation assay, OCUM1. On the procedure: as §1, §2, §3
For assay [3], the system named is SKCO-1 colon cancer cells. Put plainly: CellTiter-Glo proliferation assay, SKCO1. On the procedure: as §1, §2, §3
The test system of assay [4] is NCI-N87 stomach/gastric cancer cells. Put plainly: CellTiter-Glo proliferation assay, NCIN87. On the procedure:
as §1, §2, §3

The test system of assay [5] is BICR-22 tongue cancer cells. Put plainly: CellTiter-Glo proliferation assay, BICR22. How it is done: as §1, §2, §3

As a reminder, the IC50 is the point on the concentration scale where inhibition reaches its midpoint. The low end stands for inhibition by little substance, the high end for a need for much substance.

For `CCC(C)[C@@H]([C@@H](CC(=O)N1CCC[C@H]1[C@H](OC)[C@@H](C)C(=O)N[C@@H](Cc1ccccc1)c1nccs1)OC)N(C)C(=O)[C@@H](NC(=O)[C@H]1N[C@@H]2CC[C@H]1C2)C(C)C` (stereo partly shown) [Auristatin#1], the IC50 in assay [1] (Homo sapiens, EBC-1, 120 h) was 0.23 nM; in assay [2] (OCUM1, 120 h) it was 1.38 nM; in assay [3] (Homo sapiens, SK-CO-1, 120 h), 1.13 nM; in assay [4] (Homo sapiens, NCI-N87, 120 h), 1.2 nM; in assay [5] (120 h), 0.271 nM. Besides, the “Amax (Span)” value was 77.0 in assay [1] (Unconjugated drug cytotoxicity, EBC1, 5 days); 72.3 in assay [2] (Unconjugated drug cytotoxicity, OCUM1, 5 days); 81.6 in assay [3] (Unconjugated drug cytotoxicity, SKCO1, 5 days); 75.7 in assay [4] (Unconjugated drug cytotoxicity, NCIN87, 5 days); 89.7 in assay [5] (Unconjugated drug cytotoxicity, BICR22, 5 days).
